Results reported in US20100074896A1, “ANTAGONISTS OF PGE2 EP3 RECEPTORS” (The Johns Hopkins University, priority 2006, published 2010).

Tests used:
[1] = test system: mouse model of middle cerebral artery (MCA) occlusion; assay: MCAO (90 min) and reperfusion, hemispheric infarct volume; assay type: in vivo; conditions: 90 min occlusion, 4 days reperfusion
Protocol: (§1) Mice were anesthetized with 3.0% halothane and maintained with 1.0-1.5% continuous flow of halothane in oxygen-enriched air. Then the mice were mounted on a stereotactic frame and injected with 0.2 μl of different doses of ONO-AE-248 (0.5 nmol, 2.5 nmol, or 5.0 nmol) or vehicle (DMSO) via a 1μl Hamilton syringe (Reno, Nev.) into the right lateral ventricle as described previously (Ahmad et al., 2006a). After the injection, the needle was retracted slowly, the hole was plugged with bone wax, and the wound was sutured. Mice were then either transferred to another setup for the MCAO procedure or left in place for NMDA injection (see below).
During the MCAO procedure (FIG. 1, Illustration A), mouse rectal temperature was monitored and maintained at 37.0±0.5° C. by a heating pad, and anesthesia was maintained with continuous flow of halothane in oxygen-enriched air via a nose cone. Relative CBF was monitored with laser-Doppler flowmetry (Moor Instruments, Devon, England) by a flexible fiber optic probe affixed to the skull over the parietal cortex supplied by the MCA (2 mm posterior and 6 mm lateral to the bregma). MCAO was carried out under aseptic conditions with a silicone-coated nylon monofilament as described previously (Shah et al., 2006). […]
Four days after MCAO surgery, mice (n=9/dose) were deeply anesthetized, and their brains were harvested and sliced coronally into five 2-mm-thick sections. […] The area of infarcted brain, identified by the lack of TTC staining, was measured on the rostral and caudal surfaces of each slice and numerically integrated across the thickness of the slice to obtain an estimate of infarct volume in each slice (SigmaScan Pro, SPSS, Port Richmond, Calif., USA). Volumes from all five slices were summed to calculate total infarct volume over the entire hemisphere and expressed as a percentage of the volume of the contralateral structure. […] The corrected infarct volume was calculated as: volume of contralateral hemisphere−(volume of ipsilateral hemisphere−volume of infarct).

mice [2] = assay: Analysis of physiological parameters (arterial blood pH, PaO2, PaCO2, MABP) around MCAO; assay type: in vivo, mouse; conditions: before ischemia, during ischemia, during reperfusion; all doses
Protocol: Measurement of physiological parameters was carried out in a group of mice separate from that used to assess infarct volume (FIG. 1, Illustration B). Arterial blood samples collected via femoral catheter were analyzed for pH, PaO2, and PaCO2 before the occlusion, during occlusion, and 1 h after the occlusion. MABP was measured at the same time points by a pressure transducer connected to the femoral catheter.

mice [3] = assay: Core body temperature by intra-abdominal radiofrequency probe; assay type: in vivo, mouse; conditions: mice without MCAO, room temperature, 4-day experiment
Protocol: A third cohort of mice was implanted with intra-abdominal radiofrequency probes [IPTT-200, Bio. Medic. Data System (BMDS), Seaford, Del.] 7 days before injection of ONO-AE-248 (n=5) or vehicle (n=5). Core temperature was sampled every 10 min for the first 90 min after injection, and then once daily for 4 days at room temperature via receivers (The DAS-5002 Notebook System™; BMDS). This telemetry system minimizes stress and allows temperature control and monitoring in freely moving animals.

[4] = test system: NMDA-induced brain lesion in C57B1/6 WT mice; assay: NMDA-induced brain lesion volume (excitotoxicity); assay type: in vivo, mouse; conditions: 15 nmol NMDA intrastriatal, 48 h
Protocol: as §1
To investigate the effect of NMDA toxicity in mice lacking the EP3 receptor, WT (n=7) and EP3-/- (n=8) mice were injected in the right striatum with 15 nmol NMDA or vehicle in a volume of 0.3 μl 20 min after being injected with ONO-AE-248, as reported earlier (Ahmad et al., 2006a). After injection, the hole was blocked and the wound sutured, as described above. After the surgical procedures, the animals were transferred to a temperature-regulated chamber to recover from anesthesia. Throughout the stereotactic procedures the rectal temperature of mice was monitored and maintained at 37.0±0.5° C.
At 48 h after NMDA injection, weight and rectal temperature of each mouse was recorded. Then, mice were transcardially perfused with phosphate-buffered saline, followed by 4% paraformaldehyde (pH 7.2), under deep anesthesia. Brains were immediately removed, post-fixed in paraformaldehyde overnight, cryoprotected in sucrose (30%) for 3 days, and frozen in 2-methyl butane (pre-cooled over dry ice). Brain sections cut on a cryostat were collected on microscope slides and stained with Cresyl Violet to estimate lesion volume. Images of the brain sections were taken and analyzed with SigmaScan Pro 5.0 software (Systat Software Inc., Richmond, Calif.) as described previously (Ahmad et al., 2006b).

EP3 receptor = target: T1, EP3 receptor (Mus musculus, UniProt P30557); conditions: cited from earlier work; for Ki: read-out: Affinity for the EP3 receptor
T1 sequence (P30557 1-365): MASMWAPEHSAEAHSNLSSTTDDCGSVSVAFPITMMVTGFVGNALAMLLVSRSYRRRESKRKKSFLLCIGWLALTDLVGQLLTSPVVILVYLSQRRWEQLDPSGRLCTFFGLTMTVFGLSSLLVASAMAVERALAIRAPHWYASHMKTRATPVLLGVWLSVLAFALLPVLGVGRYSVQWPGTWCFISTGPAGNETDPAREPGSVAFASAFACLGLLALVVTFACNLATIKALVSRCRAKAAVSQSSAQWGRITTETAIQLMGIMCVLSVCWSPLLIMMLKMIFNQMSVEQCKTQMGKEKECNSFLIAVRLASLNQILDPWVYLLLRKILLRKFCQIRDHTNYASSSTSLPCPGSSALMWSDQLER

EP3 = conditions: CHO cell lines; cited from earlier work
rats = conditions: single ICV injection, 20 nmol; cited from earlier work
EP1 receptor = target: T2, EP1 receptor (Mus musculus, UniProt P35375); conditions: read-out: Affinity for the EP1 receptor; cited from earlier work
T2 sequence (P35375 1-405): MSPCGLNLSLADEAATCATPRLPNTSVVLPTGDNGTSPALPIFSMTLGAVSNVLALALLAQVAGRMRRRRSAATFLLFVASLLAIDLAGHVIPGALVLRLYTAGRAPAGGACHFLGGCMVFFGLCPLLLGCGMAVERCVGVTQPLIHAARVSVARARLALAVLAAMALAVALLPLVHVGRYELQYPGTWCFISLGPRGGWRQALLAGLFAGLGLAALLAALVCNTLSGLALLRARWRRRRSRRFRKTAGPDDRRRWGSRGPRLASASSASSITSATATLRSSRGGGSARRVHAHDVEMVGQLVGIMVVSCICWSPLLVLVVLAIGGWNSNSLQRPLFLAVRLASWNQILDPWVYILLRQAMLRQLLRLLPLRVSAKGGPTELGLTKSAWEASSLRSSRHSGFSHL

| SMILES | Infarct volume increase as compared with the vehicle-treated group ([1]; 0.5 nmol ICV before MCAO, not statistically significant) [%] | Infarct volume increase as compared with the vehicle-treated group ([1]; 2.5 nmol ICV before MCAO, statistically significant) [%] | Infarct volume increase as compared with the vehicle-treated group ([1]; 5.0 nmol ICV before MCAO, statistically significant) [%] | MABP versus vehicle group (mice [2]) | PaCO2 versus vehicle group (mice [2]) | PaO2 versus vehicle group (mice [2]) | pH (arterial blood) versus vehicle group (mice [2]) | Effect on core body temperature (mice [3]) | Effect on NMDA-induced toxicity ([4]; 0.5 nmol ICV pretreatment) | Effect on NMDA-induced lesion size ([4]; 2.5 nmol ICV pretreatment, p<0.02) | Effect on NMDA-induced lesion size ([4]; 5 nmol ICV pretreatment, p<0.001) | Specificity for EP3 over EP1 (EP3 receptor; EP3 versus EP1) [times] | Effect on forskolin-induced increase in cAMP (EP3) | Effect on body temperature (rats) | Ki (EP1 receptor) [nM] | Ki (EP3 receptor) [nM] |
| --- | --- | --- | --- | --- | --- | --- | --- | --- | --- | --- | --- | --- | --- | --- | --- | --- |
| CCCCC[C@@H](/C=C/[C@H]1[C@H](OC)CC(=O)[C@@H]1C/C=C\CCCC(=O)O)OC [ONO-AE-248] | 17 | 34 | 38 | No statistically significant differences | No statistically significant differences | No statistically significant differences | No statistically significant differences | did not affect core body temperature | did not affect | significantly and dose-dependently increased | significantly and dose-dependently increased | 1333 | prevented the forskolin-induced increase in cAMP | mild hyperthermia was induced | – | – |
| CS(=O)(=O)NC(=O)CCC/C=C\C[C@H]1C(=O)C[C@@H](O)[C@@H]1/C=C/[C@@H](O)COc1ccccc1 [sulprostone] | – | – | – | – | – | – | – | – | – | – | – | – | – | – | 4 | 0.6 |
| O=C(O)CCC/C=C\C[C@H]1C(=O)C[C@@H](O)[C@@H]1/C=C/[C@@H](O)CCc1ccccc1 [17-phenyl trinor PGE2] | – | – | – | – | – | – | – | – | – | – | – | – | – | – | 14 | 21 |
